# Measured values: US7820148B2, “Use of a complex nutritional base in cosmetics, in particular for the hair” (priority 2004, dated 2010)
# Several values for one entry are separate records, joined by “and”; a condition that tells them apart may be missing. Identical values can stand only once.
# System: scalp fragments
# Test: Example 4: cell proliferation (anti-Ki67 immunohistochemistry) in root and outer epithelial sheath of scalp fragments kept in survival
# Assay type: cell-based, human
# Conditions: N = 6, 48 hours
# Procedure: The aim of the present study is to identify the effectiveness of a CNB according to the invention and according to Table 2, on the stimulation of the root. The cell proliferation, using the anti-Ki67 antibody, was evaluated in the matrix zone of the root (growth zone of the stem), but also in the outer epithelial sheath of the follicle.
# Scalp fragments from 6 different donors (cervico-facial lift of a non-alopecia subject) were deposited in inserts, themselves positioned on culture wells.
# Containing no preservative, antibiotics were added to all these tested media (fungizone, gentamycin). They were added daily to the bottom of the wells, a passage taking place by slow diffusion between the two compartments via a porous membrane (12 μm).
# The scalp fragments were kept in survival in a stove at 37° C. and in an air/5% CO2 atmosphere for 48 hours.
# The scalp fragments were fixed in Bouin's liquid and set in paraffin.
# The immunohistochemical evaluation of proliferation was carried out in the root and in the outer epithelial sheath surrounding the hair. This outer sheath is histologically considered as the prolongation of the surface epidermis.
# Epithelial proliferation was analyzed by immunohistochemistry using an anti-Ki67 antibody (for labelling cells M, S, G1 and G2 of the cell cycle). Immunodetection was carried out using an indirect immunoperoxidase technique in 3 layers, amplified by (DAKO kit) and developed in AEC.
# The number of labelled cells of the outer epithelial sheath was counted between the origin of the sebaceous glands and the beginning of the root zone. Furthermore, the labelled matrix cells in the roots were also counted. The percentage of cells undergoing proliferation was thereby calculated compared to the unlabelled cells.
# Statistical analysis was carried out by the Student's test of the reduced deviation or paired samples test. The significant threshold was set at 5%.
smiles,measurement,setting,value
Nc1cc(N2CCCCC2)nc(N)[n+]1[O-] [Minoxidil],% of labelled cells (anti-Ki67) in the outer epithelial sheath of the follicles,Minoxidil 0.01% in PBS,10.2% and 10.2 ± 5%
same,% of labelled matrix cells (anti-Ki67) in the root of the hair follicle,Minoxidil 0.01% in PBS,4.2% and 4.2 ± 2.45%
same,% of labelled cells (anti-Ki67) in the outer epithelial sheath of the follicles,Minoxidil 2% in PBS,17.6% and 17.6 ± 7 %
same,% of labelled matrix cells (anti-Ki67) in the root of the hair follicle,Minoxidil 2% in PBS,11.60% and 11.6 ± 8.7%
